The target of experiment [1] is T1, Ras farnesyl transferase (Homo sapiens, UniProt P49354+P49356).
T1 construct: made in house
The experiment can be described thus: Ras farnesyl transferase inhibiting activity (filter-binding, tritium-farnesylpyrophosphate, Ras-CVLS substrate). Type of experiment: biochemical. As to conditions: recombinant Ras farnesyl transferase, 30 minutes at 37° C., read-out: Ftase IC50.

Experiment [2] relates to intracellular Ras farnesyl transferase, Rat2 cell line. The experiment can be described thus: Intracellular Ras farnesyl transferase inhibiting activity in transformed Rat2 cells (35S-methionine labelling, Y13-259 immunoprecipitation, SDS-PAGE). Type of experiment: cell-based. To be noted: Rattus norvegicus; transformed Rat2 fibroblast cell line; concentration inhibiting 50% of farnesyl binding of Ras protein; read-out: Ftase CIC50. In short, it runs like this: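 Rat2 fibroblasts transformed with H-Ras, or with H-Ras carrying the K-Ras polybasic lysine C-terminus, were treated with compound (1% DMSO). After 4 h they were labelled for 20 h with 150 μCi/ml 35S-methionine. Lysates were immunoprecipitated with Y13-259, run on 13.5% SDS-PAGE and autoradiographed; CIC50 is the concentration halving farnesylated versus unfarnesylated Ras band intensity.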

Experiment [3] concerns the target T2, Geranylgeranyl transferase (Bos taurus, UniProt P29702+Q5EAD5).
T2 construct: Geranylgeranyl transferase was purified from bovine brain; from tissue; host or cells: bovine brain
The experiment can be described thus: Geranylgeranyl transferase inhibiting activity (geranylgeranyl pyrophosphate, Ras-CVIL substrate). Type of experiment: biochemical. As to conditions: geranylgeranyl transferase purified from bovine brain, read-out: GGtase IC50. Summed up:
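Bovine-brain-purified enzyme run as in the farnesyl transferase assay, with geranylgeranyl pyrophosphate and Ras-CVIL substrate protein under similar reaction conditions.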

As to `N#Cc1ccc(Cn2cncc2CN2C(=O)C(CC(=O)O)N(Cc3cccc4ccccc34)C2=O)cc1` (stereo not drawn) [Compound 78, {1-[3-(4-cyano-benzyl)-3H-imidazol-4-ylmethyl]-3-naphthalen-1-ylmethyl-2,5-dioxo-imidazolidin-4-yl}-acetic acid], the IC50 in experiment [1] is 0.1 µM; in experiment [2], under 20 µM; in experiment [3], over 10 µM.

For the compound `COC(=O)C[C@H]1C(=O)N(Cc2cncn2Cc2ccc(C#N)cc2)C(=O)N1Cc1cccc2ccccc12` [Compound 79, {1-[3-(4-cyano-benzyl)-3H-imidazol-4-ylmethyl]-3-naphthalen-1-ylmethyl-2,5-dioxo-imidazolidin-(4S)-yl}-acetic acid methyl ester], the IC50 in experiment [1] was 0.04 µM; in experiment [2] it was under 10 µM; in experiment [3] it was over 10 µM.

Take `N#Cc1ccc(Cn2cncc2CN2C(=O)C(CC(=O)N3CCOCC3)N(Cc3cccc4ccccc34)C2=O)cc1` (stereo not drawn) [Compound 80, 4-{5-[4-(2-morpholin-4-yl-2-oxo-ethyl)-3-naphthalen-1-ylmethyl-2,5dioxo-imidazolidin-1-ylmethyl]-imidazol-1-ylmethyl}-benzonitrile]: the IC50 was 0.09 µM in experiment [1], under 10 µM in experiment [2] and over 10 µM in experiment [3].

With `N#Cc1ccc(Cn2cncc2CN2C(=O)[C@H](CC(=O)N3CCOCC3)N(Cc3cccc4ccccc34)C2=O)cc1` [Compound 81, 4-{(5S)-[4-(2-morpholin-4-yl-2-oxo-ethyl)-3-naphthalen-1-ylmethyl-2,5-dioxo-imidazolidin-1-ylmethyl]-imidazol-1-ylmethyl}-benzonitrile], the IC50 was 0.11 µM in experiment [1], under 20 µM in experiment [2] and over 10 µM in experiment [3].

In the case of `CN(C)CCNC(=O)CC1C(=O)N(Cc2cncn2Cc2ccc(C#N)cc2)C(=O)N1Cc1cccc2ccccc12` (stereo not drawn) [Compound 82, 2-{1-[3-(4-cyano-benzyl)-3H-imidazol-4-ylmethyl]-3-naphthalen-1-ylmethyl-2,5-dioxo-imidazolidin-4-yl}-N-(2-(N,N-dimethylamino)-ethyl)-acetamide], the results for the IC50 in experiment [1], in experiment [2] and in experiment [3] were 0.15 µM, under 20 µM and over 10 µM, respectively.

Consider `COCCN(C)C(=O)CC1C(=O)N(Cc2cncn2Cc2ccc(Br)cc2)C(=O)N1Cc1cccc2ccccc12` (stereo not drawn) [Compound 83, 2-{1-[3-(4-bromo-benzyl)-3H-imidazol-4-ylmethyl]-3-naphthalen-1-ylmethyl-2,5dioxo-imidazolidin-4-yl}-N-(2-methoxy-ethyl)-N-methyl-acetamide], for which the IC50 in experiment [1] was 1.5 µM; in experiment [2], over 50 µM; in experiment [3], over 10 µM.

As for `CN1CCN(C(=O)C[C@H]2C(=O)N(Cc3cncn3Cc3ccc(C#N)cc3)C(=O)N2Cc2cccc3ccccc23)CC1` [Compound 84, 4-((5S)-{4-[2-(4-methyl-piperazin-1-yl)-2-oxo-ethyl]-3-naphthalen-1-ylmethyl-2,5-dioxo-imidazolidin-1-ylmethyl}-imidazol-1-ylmethyl)-benzonitrile], the IC50 was 0.12 µM in experiment [1], under 20 µM in experiment [2] and over 10 µM in experiment [3].

In the case of `COC(=O)[C@H](CCSC)NC(=O)CC1C(=O)N(Cc2cncn2Cc2ccc(C#N)cc2)C(=O)N1Cc1cccc2ccccc12` (stereo partly drawn) [Compound 85, (2S)-(2-{1-[3-(4-cyano-benzyl)-3H-imidazol-4-ylmethyl]-3-naphthalen-1-ylmethyl-2,5-dioxo-imidazolidin-4-yl}-acetamino)-4-methylsulfanyl-butyric acid methyl ester], the IC50 is 0.2 µM in experiment [1], under 50 µM in experiment [2] and over 10 µM in experiment [3].

As for `CSCC[C@H](NC(=O)CC1C(=O)N(Cc2cncn2Cc2ccc(C#N)cc2)C(=O)N1Cc1cccc2ccccc12)C(=O)O` (stereo partly drawn) [Compound 86, (2S)-(2-{1-[3-(4-cyano-benzyl)-3H-imidazol-ylmethyl]-3-naphthalen-1-ylmethyl-2,5-dioxo-imidazolidin-4-yl}-acetamino)4-methylsulfanyl-butyric acid], the IC50 in experiment [1] was 0.05 µM; in experiment [2] it was under 10 µM; in experiment [3], over 10 µM.

`O=C1CN(c2cccc3ccccc23)C(=O)N1CCCn1ccnc1` [Compound 87, 3-(3-imidazol-1-yl-propyl)-1-naphthalen-1-yl-imidazolidin-2,4-dione]: the IC50 in experiment [1] was 5 µM; in experiment [2], over 50 µM; in experiment [3], over 10 µM.
